Here are results for two compounds from patent US8481501B2 (priority 2004, dated 2013).

For one assay, the system named is adult male rats. In words: Precipitation of somatic signs of withdrawal after acute morphine. Type of assay: in vivo, rat. Particulars: s.c., 4 hr after morphine 5.0 mg/kg.
The target of assay [1] is T1, kappa opioid receptor (Homo sapiens, UniProt P41145). Description: Ke at kappa, CHO membranes. It counts as biochemical. Also on record: expressed in transfected cells; host or cells: CHO. To be noted: Table 7, CHO membranes.
Assay [2] addresses T2, delta opioid receptor (Homo sapiens, UniProt P41143). Description: biochemical. Type of assay: binding. The arrangement: expressed in transfected cells; host or cells: transfected cells. Particulars: Table 7, CHO membranes; for Ki: read-out: Ki delta.
Assay [3] concerns the target T1, kappa opioid receptor. Description: biochemical. Type of assay: binding. The arrangement: expressed in transfected cells; host or cells: transfected cells. To be noted: Table 7, CHO membranes; for Ki: read-out: Ki kappa.
In assay [4] the target is T2, delta opioid receptor. Description: Stimulation of [35S]GTPγS binding (coupling to G proteins). It counts as biochemical. The arrangement: expressed in transfected cells; host or cells: transfected cells. Particulars: for Emax / EC50: Table 8; for EC50: read-out: delta EC50. A general note: Binding of GTPγS marks nucleotide exchange on a G protein.
Assay [5] deals with T1, kappa opioid receptor. Description: biochemical. Particulars: for Emax / EC50: Table 8; for Emax: read-out: kappa % stimulation; for EC50: read-out: kappa EC50. The arrangement: expressed in transfected cells; host or cells: transfected cells. Type of assay: biochemical.
Assay [6] addresses T2, delta opioid receptor. Description: Ke at delta, CHO membranes. Type of assay: biochemical. Also on record: expressed in transfected cells; host or cells: CHO. To be noted: Table 7, CHO membranes.

Molecules are shown by their SMILES.

T1 sequence (P41145 whole entry): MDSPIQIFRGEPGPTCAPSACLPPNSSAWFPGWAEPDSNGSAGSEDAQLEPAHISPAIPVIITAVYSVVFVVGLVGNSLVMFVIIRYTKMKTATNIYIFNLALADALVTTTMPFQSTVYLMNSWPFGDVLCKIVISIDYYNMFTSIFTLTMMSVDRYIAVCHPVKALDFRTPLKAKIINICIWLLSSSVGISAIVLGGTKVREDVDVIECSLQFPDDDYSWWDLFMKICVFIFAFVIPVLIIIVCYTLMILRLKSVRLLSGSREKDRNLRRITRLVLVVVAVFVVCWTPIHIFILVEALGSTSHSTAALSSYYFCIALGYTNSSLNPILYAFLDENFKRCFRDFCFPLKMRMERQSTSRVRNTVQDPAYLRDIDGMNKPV
T2 sequence (P41143 whole entry): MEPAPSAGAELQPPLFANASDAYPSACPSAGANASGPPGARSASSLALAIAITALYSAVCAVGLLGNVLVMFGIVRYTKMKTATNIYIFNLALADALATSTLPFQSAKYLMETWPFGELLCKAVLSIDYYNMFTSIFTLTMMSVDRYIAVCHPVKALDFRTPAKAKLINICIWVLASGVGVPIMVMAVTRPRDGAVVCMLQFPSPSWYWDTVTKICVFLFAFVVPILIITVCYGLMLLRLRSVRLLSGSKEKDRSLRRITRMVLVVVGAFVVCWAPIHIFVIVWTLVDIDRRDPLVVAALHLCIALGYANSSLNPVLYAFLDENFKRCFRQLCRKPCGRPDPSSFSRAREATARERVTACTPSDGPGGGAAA

As to `O=C(CC1OC(CO)C(O)C(O)C1O)NC1CCC2(O)C3Cc4ccc(O)c5c4C2(CCN3CC2CC2)C1O5` (stereo not drawn) [6a, 14-Hydroxy-17-(cyclopropylmethyl)nordesmorphine-6-acetamidoglucose], the “approximate EC50 for precipitation of somatic signs of withdrawal” value with adult male rats was “approximately 1 mg/kg”. The “Ke(other) (kappa)” value at kappa opioid receptor [1] was found to be 13.39 ± 1.51. At delta opioid receptor [2], the Ki delta entry was “moderate affinity” and the Ki amounted to 0.0913 ± 0.0038 µM. In addition, at kappa opioid receptor [3], the Ki kappa entry is given as “moderate affinity” and the Ki was determined as 0.0104 ± 0.0028 µM. On delta opioid receptor [4], the Emax stood at 43.1% and the EC50 is 0.0909 µM. In addition, the “agonist/antagonist character at the delta receptor” value at delta opioid receptor [4] (based on [35S]GTPγS binding) is “partial agonist”. Also, at kappa opioid receptor [5], the Emax came to 11% and the EC50 turned out to be 0.0112 µM. At kappa opioid receptor [5] (based on [35S]GTPγS binding), the “agonist/antagonist character at the kappa receptor” value is on record as “strong antagonist”.
As to `O=C(C[C@@H]1O[C@H](COCc2ccccc2)[C@@H](OCc2ccccc2)[C@H](OCc2ccccc2)[C@H]1OCc1ccccc1)NC1CC[C@@]2(O)[C@H]3Cc4ccc(O)c5c4[C@@]2(CCN3CC2CC2)[C@H]1O5` (stereo partly drawn) [compound 5, 6-acetamido-2,3,4,6-tetra-O-benzyl-D-glucopyranosyl-14-Hydroxy-17-(cyclopropylmethyl)nordesmorphine], at delta opioid receptor [6], the “Ke(other) (delta)” value is reported as 10.35 ± 2.01. For the same compound, at delta opioid receptor [2], the Ki delta entry is listed as “low affinity” and the Ki was determined as 0.14 ± 0.0139 µM. At kappa opioid receptor [3], the Ki kappa entry is “moderate affinity” and the Ki was found to be 0.039 ± 0.0063 µM. At delta opioid receptor [4], the Emax came to 20.5% and the EC50 was 0.107 µM. In addition, on kappa opioid receptor [5], the Emax is 45.5% and the EC50 turned out to be 0.0108 µM.
